Assay results published in ChEMBL document CHEMBL1201862, “PubChem BioAssay data set” (2004).
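Assay format: 96-well plates, 48-hour exposure. Here, GI50 denotes the concentration required for 50% inhibition of growth.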 Active and inactive are the calls of the source. Rule as the data show it: active = GI50 up to about 1.1 µM and inactive = higher.

Experiments:
Test in all cases: NCI tumour cell line growth inhibition, 48 h
MDA-N = test system: MDA-N
RXF 393 = test system: RXF 393
NCI-H23 = test system: NCI-H23
OVCAR-5 = test system: OVCAR-5
RPMI-8226 = test system: RPMI-8226
SNB-75 = test system: SNB-75
ACHN = test system: ACHN
NCI-H460 = test system: NCI-H460
IGROV-1 = test system: IGROV-1
NCI-H226 = test system: NCI-H226
A498 = test system: A498
KM12 = test system: KM12
SK-MEL-28 = test system: SK-MEL-28
UACC-62 = test system: UACC-62
PC-3 = test system: PC-3
SF-268 = test system: SF-268
HOP-62 = test system: HOP-62
SR = test system: SR
Hs-578T = test system: Hs-578T

SMILES | GI50 (MDA-N) | GI50 (RXF 393) | GI50 (NCI-H23) | GI50 (OVCAR-5) | GI50 (RPMI-8226) | GI50 (SNB-75) | GI50 (ACHN) | GI50 (NCI-H460) | GI50 (IGROV-1) | GI50 (NCI-H226) | GI50 (A498) | GI50 (KM12) | GI50 (SK-MEL-28) | GI50 (UACC-62) | GI50 (PC-3) | GI50 (SF-268) | GI50 (HOP-62) | GI50 (SR) | GI50 (Hs-578T)
Nn1c(CCCCCCCCc2nnc(COc3ccc(Cl)cc3Cl)n2N)nnc1COc1ccc(Cl)cc1Cl | 62.5 µM (inactive) | 38.5 µM (inactive) | 38 µM (inactive) | 35.6 µM (inactive) | 21.6 µM (inactive) | > 10 µM (inactive) | 44.9 µM (inactive) | 63.8 µM (inactive) | 6.43 µM (inactive) | 63.5 µM (inactive) | 45.3 µM (inactive) | 40 µM (inactive) | 68.5 µM (inactive) | 38.6 µM (inactive) | 31 µM (inactive) | 33 µM (inactive) | – | – | –
Brc1ccc2c(c1)C1=C(CO2)Cc2ccccc2O1 | 13.2 µM (inactive) | – | 16.3 µM (inactive) | 19.1 µM (inactive) | 18.2 µM (inactive) | 22 µM (inactive) | 19.2 µM (inactive) | – | 12.4 µM (inactive) | 17.5 µM (inactive) | 27.4 µM (inactive) | 19 µM (inactive) | – | 17.2 µM (inactive) | 17.1 µM (inactive) | 19.1 µM (inactive) | 15.6 µM (inactive) | 36.2 µM (inactive) | –
COC(=O)c1c(C)cccc1CC1Cc2c(C)cccc2C1=O (centres undefined) | 30.3 µM (inactive) | 27.9 µM (inactive) | 25.8 µM (inactive) | 80.2 µM (inactive) | – | 29.7 µM (inactive) | 35.7 µM (inactive) | 35 µM (inactive) | 33.3 µM (inactive) | 20.6 µM (inactive) | 22.6 µM (inactive) | 20.1 µM (inactive) | 55.8 µM (inactive) | 23.8 µM (inactive) | 34.4 µM (inactive) | 31 µM (inactive) | 61.9 µM (inactive) | – | 35.3 µM (inactive)
CSc1nc(C)cc(Nc2ccc(O)c(CN3CCCCC3)c2)n1 | 28 µM (inactive) | 67.6 µM (inactive) | 77.4 µM (inactive) | 28.6 µM (inactive) | 23.3 µM (inactive) | > 100 µM (inactive) | 83 µM (inactive) | – | 60.5 µM (inactive) | 32.4 µM (inactive) | 23.1 µM (inactive) | > 100 µM (inactive) | 28.8 µM (inactive) | 60.8 µM (inactive) | – | > 100 µM (inactive) | > 100 µM (inactive) | 32.1 µM (inactive) | > 100 µM (inactive)
C=CCN(Cc1ccncc1)C(=O)C(O)(c1ccccc1)c1ccccc1 | 45.8 µM (inactive) | > 100 µM (inactive) | 54.3 µM (inactive) | > 100 µM (inactive) | 22 µM (inactive) | 85.9 µM (inactive) | > 100 µM (inactive) | – | > 100 µM (inactive) | > 100 µM (inactive) | – | 35.2 µM (inactive) | 76.4 µM (inactive) | 39.1 µM (inactive) | 37.2 µM (inactive) | > 100 µM (inactive) | > 100 µM (inactive) | 32.7 µM (inactive) | –
CNC(=O)N1CN(c2ccccc2)C2(CCN(Cc3ccccc3)CC2)C1=O | 29.2 µM (inactive) | > 100 µM (inactive) | > 100 µM (inactive) | 1.05 µM (active) | 43.4 µM (inactive) | > 100 µM (inactive) | > 100 µM (inactive) | – | 5 µM (inactive) | > 100 µM (inactive) | – | 29.9 µM (inactive) | > 100 µM (inactive) | 69.8 µM (inactive) | 93.1 µM (inactive) | > 100 µM (inactive) | > 100 µM (inactive) | 15.7 µM (inactive) | –
Cc1ccc(C)c(N2C(=O)C(=O)C(c3nc4ccccc4s3)/C(=N\c3cccc4c(=O)[nH][nH]c(=O)c34)C2=O)c1 (centres undefined) | – | – | > 100 µM (inactive) | > 100 µM (inactive) | > 100 µM (inactive) | 97.9 µM (inactive) | > 100 µM (inactive) | > 100 µM (inactive) | > 100 µM (inactive) | > 100 µM (inactive) | > 100 µM (inactive) | > 100 µM (inactive) | > 100 µM (inactive) | > 100 µM (inactive) | – | > 100 µM (inactive) | > 100 µM (inactive) | > 100 µM (inactive) | –
CC(=O)NCCSC(=O)c1ccccc1 | – | 0.112 µM (active) | 0.0559 µM (active) | 0.141 µM (active) | 0.131 µM (active) | 0.741 µM (active) | < 0.0195 µM (active) | < 0.033 µM (active) | 1.69 µM (inactive) | 0.116 µM (active) | – | 0.449 µM (active) | 0.268 µM (active) | 0.013 µM (active) | 0.525 µM (active) | 0.0977 µM (active) | 0.148 µM (active) | 0.0146 µM (active) | 0.479 µM (active)
CCOC(CCCN1CCC2(CC1)C(=O)N(C)CN2c1ccccc1)(OCC)c1ccc(F)cc1 | 11.6 µM (inactive) | 19.2 µM (inactive) | 16.6 µM (inactive) | 7.89 µM (inactive) | 10.5 µM (inactive) | 19.4 µM (inactive) | 5.16 µM (inactive) | – | 8.41 µM (inactive) | 18.3 µM (inactive) | – | 15.3 µM (inactive) | 16.8 µM (inactive) | 16 µM (inactive) | 15.7 µM (inactive) | 12.9 µM (inactive) | 4.6 µM (inactive) | – | –
